Results published in publication doi:10.1101/2023.07.11.548539v1, “A side-by-side comparison of peptide-delivered antisense antibiotics employing different nucleotide mimics” (bioRxiv, 2023).
Oligonucleotides are written 5' to 3', each unit as a sugar letter and its base; * is a phosphorothioate linkage, no mark a phosphodiester; rarer units and linkages stand in square brackets, end groups in braces. Plain capitals give the bases only. d = 2'-deoxy (DNA)

Tests used:
[1] = tested on: Salmonella; experiment: RNA-seq, global transcriptome (PCA); type: cell-based, Salmonella enterica serovar Typhimurium strain SL1344; conditions: 5 µM KFF-ASO conjugate or peptide, 15 min; two independent RNA-seq experiments
Protocol: (§1) RNA isolation was performed using previously published protocols ([30],[31]). Bacterial overnight cultures were diluted 1:100 in fresh MHB and grown to OD600 0.5. The cultures were diluted to approximately 10^6 cfu/ml in non-cation-adjusted MHB. Afterwards, an aliquot of the bacterial solution was transferred into 5 ml low-binding tubes (LABsolute) containing the ASOs solution (adjusted such that the final concentration was 5 μM for all tested compounds). As a negative control, cells were treated with the respective volume of sterile nuclease-free water, which was used as solvent for the ASOs. After incubating the samples for 15 min at 37 °C, RNAprotect Bacteria (Qiagen) was added according to the manufacturer’s instructions. Following a 10-min incubation, cells were pelleted at 4 °C and 21,100 × g for 20 min. The supernatant was discarded and pellets were either directly used or stored at –20°C (<1 day) for subsequent bacterial RNA isolation.
(§2) Total RNA was purified from bacterial pellets using the miRNeasy Mini kit (Qiagen) according to protocol #3 described in ([30]). Briefly, cells were resuspended in 0.5 mg/ml lysozyme (Roth) in TE buffer (pH 8.0) and incubated for 5 min. Afterwards, RLT buffer supplemented with β-mercaptoethanol, and ethanol were added according to the manufacturer’s instructions. After sample loading, column wash-steps were performed according to the manual. RNA concentration was measured with a NanoDrop spectrophotometer.
(§3) For transcriptomic analyses, RNA samples were processed and subjected to RNA-seq at Core Unit SysMed (University of Würzburg, Germany). Sequencing was run using a previously published protocol ([31]). […] Sequencing of pooled libraries, spiked with 5% PhiX control library, was performed at 10 million reads/sample in single-end mode with 75 nt read length on the NextSeq 500 platform (Illumina) using High output sequencing kits. […]
RNA-seq data analysis was performed similarly to our previous analysis of PNA activity in S. enterica ([30]). Briefly, adapters and low-quality bases (Phred quality score <10) of raw reads were trimmed using BBduk. Then the RNA-seq reads were mapped to the S. enterica serovar Typhimurium reference genome and the three plasmids pSLT SL1344, pCol1B9 SL1344, and pRSF1010 SL1344 ([37]) using BBMap (v38.18) and genomic features were assigned using the featureCounts command of the Subread (2.0.1) package ([38]). […]
Downstream RNA-seq analysis was performed using packages from the R/Bioconductor project. Raw read counts of all conditions were imported into edgeR (v3.34.1) ([40]) and analysed for differential expression. To filter low-count reads, features with less than 1.38 counts per million (CPM) in at least 5 libraries were ignored for further analysis. […]

[2] = tested on: acpP mRNA; experiment: RNA-seq, target mRNA depletion; type: cell-based, Salmonella enterica serovar Typhimurium strain SL1344; set-up: key to acpP depletion (RNA-seq): -: Effect strength is represented by additional (+) signs.; Effect strength is represented by additional (+) signs.; ++: Effect strength is represented by additional (+) signs.; +++: Effect strength is represented by additional (+) signs; conditions: for acpP depletion (RNA-seq): summary grade, ASO conjugated to the carrier peptide; for acpP mRNA depletion (in words): 5 µM KFF-ASO conjugate, 15 min, ~10^6 cfu/ml
Protocol: as §1, §2
For transcriptomic analyses, RNA samples were processed and subjected to RNA-seq at Core Unit SysMed (University of Würzburg, Germany). Sequencing was run using a previously published protocol ([31]). Briefly, RNA quality was checked using a 2100 Bioanalyzer with the RNA 6000 Pico/ Nano kit (Agilent Technologies). RNA samples were DNase-treated using DNAse I kit (Thermo Fisher), followed by ribosomal RNA depletion using Lexogen’s RiboCop META rRNA Depletion Kit protocol according to manufacturer’s recommendation. Subsequently, cDNA libraries suitable for sequencing were prepared using CORALL Total RNA-Seq Library Prep protocol (Lexogen) according to manufacturer’s recommendation with 14–25 PCR cycles. Library quality was checked using a 2100 Bioanalyzer with the DNA High Sensitivity kit (Agilent Technologies). Sequencing of pooled libraries, spiked with 5% PhiX control library, was performed at 10 million reads/sample in single-end mode with 75 nt read length on the NextSeq 500 platform (Illumina) using High output sequencing kits. Demultiplexed FASTQ files were generated with bcl2fastq2 v2.20.0.422 (Illumina).
RNA-seq data analysis was performed similarly to our previous analysis of PNA activity in S. enterica ([30]). Briefly, adapters and low-quality bases (Phred quality score <10) of raw reads were trimmed using BBduk. Then the RNA-seq reads were mapped to the S. enterica serovar Typhimurium reference genome and the three plasmids pSLT SL1344, pCol1B9 SL1344, and pRSF1010 SL1344 ([37]) using BBMap (v38.18) and genomic features were assigned using the featureCounts command of the Subread (2.0.1) package ([38]). For the coverage plots in Figure 8, the bamCoverage (v3.3.2) method of the deepTools platform was applied ([39]).
Downstream RNA-seq analysis was performed using packages from the R/Bioconductor project. Raw read counts of all conditions were imported into edgeR (v3.34.1) ([40]) and analysed for differential expression. To filter low-count reads, features with less than 1.38 counts per million (CPM) in at least 5 libraries were ignored for further analysis. The cutoff of 1.38 CPM was set to 10/L, with L being the minimum library size across all samples in millions, as described in ([41]). Libraries were normalized using edgeR’s trimmed mean of M values (TMM) normalization ([40]). The glmFit function was applied to estimate quasi-likelihood dispersions and contrasts for differential expression analysis were tested using the glmQLTest function. […]

[3] = tested on: Salmonella periplasm; experiment: MALDI-TOF analysis of ASO-peptide conjugate uptake; type: cell-based; set-up: key: -: Effect strength is represented by additional (+) signs.; Effect strength is represented by additional (+) signs.; ++: Effect strength is represented by additional (+) signs.; +++: Effect strength is represented by additional (+) signs; conditions: summary grade; ASO conjugated to the carrier peptide
Protocol: The experiments were performed by modifying previously published protocols ([29]). From an overnight culture of Salmonella, a second culture was inoculated (1:100) and grown to OD600 of 0.5 (corresponding to ∼2×10^8 cfu/mL). These bacterial cells was washed twice in MHB and resuspended in 95 µl of MHB with an additional incubation at 37°C for 5-10 min. Sterile ASO-peptide conjugates were prepared at concentrations of 200 µM. 5 µl of the 200 µM working solutions were added to 95 µl of bacteria in culture media, leading to a final concentration of the compounds of 10 µM. 5 µl of H2O was added as a negative control. The tubes were incubated at 37°C for 15 min with shaking at 300 rpm. Subsequently, they were centrifuged at 8,000 x g for 5 min at 4 °C. The supernatant was aspirated and the pellet was washed with 0.01 M Tris-HCl before being resuspended in 200 µl of 0.01M Tris-HCl containing 0.5 M Sucrose, 150 µg/ml lysozyme, 10 mM EDTA and incubated at 37 °C overnight. These tubes were then centrifuged at 2,000 x g at 4°C for 10 min. The supernatant obtained represents the periplasm. The pellet containing spheroplasts was gently washed with 0.01 M Tris-HCl containing 0.5 M Sucrose and resuspended in 20 ml of B-PER™ Bacterial Protein Extraction Reagent (Thermo Fischer Scientific) for 1 h. After this, the spheroplasts were subjected to sonication (20kHz for 2×10 s), incubated on ice for 5 min and centrifuged at 20,000 x g for 30 min at 4 °C. The supernatant represents the cytoplasm. Both the periplasm and cytoplasm fragments were then mixed with 2, 6-Dihydroxyacetophenone (DHAP) in ACN 1:1, spotted on a MALDI plate and analyzed for MALDI-TOF-MS in a Bruker DaltonicsUltrafleXtreme Instrument. The experiment was performed two times and data of one representative experiment are shown.

[4] = tested on: fabF (3-oxoacyl-[acyl carrier protein] synthase 2) transcript; experiment: RNA-seq, fabF transcript; type: cell-based, Salmonella enterica serovar Typhimurium strain SL1344; conditions: 5 µM KFF-ASO conjugate, 15 min
Protocol: RNA isolation was performed using previously published protocols ([30],[31]). Bacterial overnight cultures were diluted 1:100 in fresh MHB and grown to OD600 0.5. The cultures were diluted to approximately 10^6 cfu/ml in non-cation-adjusted MHB. Afterwards, an aliquot of the bacterial solution was transferred into 5 ml low-binding tubes (LABsolute) containing the ASOs solution (adjusted such that the final concentration was 5 μM for all tested compounds). As a negative control, cells were treated with the respective volume of sterile nuclease-free water, which was used as solvent for the ASOs. […]
Total RNA was purified from bacterial pellets using the miRNeasy Mini kit (Qiagen) according to protocol #3 described in ([30]). […] RNA concentration was measured with a NanoDrop spectrophotometer.
as §3, with “Germany).” for “Germany). Sequencing was run using a previously published protocol ([31]).”
RNA-seq data analysis was performed similarly to our previous analysis of PNA activity in S. enterica ([30]). Briefly, adapters and low-quality bases (Phred quality score <10) of raw reads were trimmed using BBduk. […]

Substance	PCA cluster of the transcriptomic response [1]	acpP depletion (RNA-seq) [2]	Uptake inside bacteria (MS) [3]	acpP mRNA depletion (in words) [2]	fabF transcript level [4]
RNA-OMe: 10mer 2'-methylated RNA antisense oligomer, sequence CTCATACTCT, targeting acpP (all 2'-O-methyl, backbone and T or U not given here)	cluster 1	-	-		
LNA: 10mer 2'-4'-locked RNA antisense oligomer, sequence CTCATACTCT, targeting acpP (all LNA, backbone and methylation of C not given here)		-	-	slight effect	
PMO: 10mer phosphorodiamidate morpholino antisense oligomer, sequence CTCATACTCT, targeting acpP (all phosphorodiamidate morpholino (PMO))	cluster 3				Reduction
DNA-PTO: 10mer phosphorothioate-modified DNA antisense oligomer, sequence CTCATACTCT, targeting acpP (antisense dC*dT*dC*dA*dT*dA*dC*dT*dC*dT)		-	-		
RNA-MOE: 10mer 2'-methoxyethylated RNA antisense oligomer, sequence CTCATACTCT, targeting acpP (all 2'-MOE, backbone and methylation of C not given here)	cluster 1	-	-		
PNA: 10mer peptide nucleic acid antisense oligomer, sequence CTCATACTCT, targeting acpP (all peptide nucleic acid (PNA))	cluster 1			reduced the levels of acpP mRNA	Reduction
RNA-F: 10mer 2'-fluorinated RNA antisense oligomer, sequence CTCATACTCT, targeting acpP (all 2'-fluoro, backbone and T or U not given here)		-	-		
